# From the supplement of paper PMC10307832
# Tests used:
# Test in all cases: relative viability (nuclei count vs DMSO), 5 days (fraction); higher = more cells survive
# [1] = compound: C1COCCN1C2=NC(=NC3=C2OC4=C3C=CC=N4)C5=CC(=CC=C5)NC(=O)C6=CN=C(C=C6)N + Cc1cc(Nc2cc(N3CCN(C)CC3)nc(Sc3ccc(NC(=O)C4CC4)cc3)n2)n[nH]1 [Tozasertib] (partner 0.1 µM)
# Summary of the method: (§1)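 Cells from lung cancer lines were seeded into 1536-well plates and, one day later, dosed by pin tool. Treatments were either a single drug or a fixed dose of an anchor drug with five library-drug doses (not always all listed) in √10 steps. After 5 days, nuclei were stained in a one-step fixation (final 0.05% Triton X-100, 1% formaldehyde, 1 ug/ml Hoechst) and counted on 4× images, and relative viability is the treated-to-vehicle nuclei ratio, as the median of duplicate plates.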
# [2] = compound: CN1CCC(CNc2ccc3ncc(-c4cccc(OC(F)(F)F)c4)n3n2)CC1 [SGI-1776] + COc1cccc2cc(-c3nc([C@H]4CC[C@H](C(=O)O)CC4)n4ncnc(N)c34)[nH]c12 [OSI-027] (partner 0.5 µM)
# Summary of the method: as §1
# [3] = compound: Nc1ccccc1NC(=O)c1ccc(CNC(=O)OCc2cccnc2)cc1 [Entinostat] + CS(=O)(=O)N1CCN(Cc2cc3nc(-c4cccc5[nH]ncc45)nc(N4CCOCC4)c3s2)CC1 [Pictilisib] (partner 1 µM)
# Summary of the method: as §1
# [4] = compound: Nc1ccccc1NC(=O)c1ccc(CNC(=O)OCc2cccnc2)cc1 [Entinostat] + O=C(CCCCCCC(=O)Nc1ccccc1)NO [Vorinostat] (partner 1 µM)
# Summary of the method: as §1
Cell Line,relative viability ([1]; first compound 0.02 µM),relative viability ([1]; first compound 0.06325 µM),relative viability ([1]; first compound 0.2 µM),relative viability ([1]; first compound 0.6325 µM),relative viability ([1]; first compound 2 µM),relative viability ([2]; first compound 0.08 µM),relative viability ([2]; first compound 0.8 µM),relative viability ([2]; first compound 2.53 µM),relative viability ([2]; first compound 8 µM),relative viability ([3]; first compound 0.02 µM),relative viability ([3]; first compound 0.06325 µM),relative viability ([3]; first compound 0.2 µM),relative viability ([3]; first compound 0.6325 µM),relative viability ([3]; first compound 2 µM),relative viability ([4]; first compound 0.02 µM),relative viability ([4]; first compound 0.06325 µM),relative viability ([4]; first compound 0.2 µM),relative viability ([4]; first compound 0.6325 µM),relative viability ([4]; first compound 2 µM)
NCI-H1395,0.78,0.709,0.772,0.719,0.576,0.78,0.582,0.627,0.448,0.598,0.758,0.64,0.67,0.487,1.05,0.96,0.829,0.65,0.463
NCI-H1437,0.437,0.424,0.398,0.377,0.241,0.913,0.976,0.819,0.806,0.415,0.255,0.182,0.147,0.112,0.612,0.466,0.383,0.261,0.254
NCI-H1650,0.472,0.425,0.328,0.338,0.255,0.627,0.565,0.417,0.197,0.65,0.67,0.554,0.407,0.248,0.794,0.747,0.571,0.438,0.264
NCI-H1651,0.685,0.76,0.416,0.522,0.338,0.81,0.683,0.677,0.529,0.624,0.674,0.572,0.452,0.365,0.599,0.645,0.449,0.496,0.314
NCI-H1666,0.614,0.615,0.588,0.513,0.501,0.953,0.853,0.759,0.674,0.44,0.403,0.34,0.258,0.258,1.05,0.979,0.934,0.835,0.601
NCI-H1734,0.272,0.254,0.257,0.229,0.186,0.686,0.645,0.615,0.403,0.454,0.513,0.459,0.41,0.289,0.846,0.861,0.84,0.604,0.489
NCI-H1755,0.606,0.572,0.468,0.414,0.473,0.703,0.637,0.533,0.529,0.383,0.408,0.367,0.204,0.205,0.762,0.728,0.769,0.48,0.374
NCI-H1793,0.314,0.305,0.262,0.29,0.279,0.258,0.253,0.31,0.223,0.317,0.333,0.285,0.235,0.219,0.78,0.854,0.801,0.439,0.29
